Laboratory results: US12708625B2, “Pharmaceutical composition for improving or treating post-surgical hypoparathyroidism and treatment method using the same” (DONGGUK UNIVERSITY INDUSTRY-ACADEMIC COOPERATION FOUNDATION, priority 2019, dated 2026)

Experiments:
Assay type in all cases: in vivo, rat
[1] = system: total parathyroidectomy and auto-transplantation model; experiment: Administration of AXT914 in total parathyroidectomy and auto-transplantation model (Experimental Schedule 2): serum PTH, calcium, phosphorus; details: 10 mg/kg oral once daily 3 weeks
Method: (§1) 9-week-old female Wistar rats were purchased from Koatech Co., Ltd. (Korea), and housed in an SPF room at a temperature of 21 to 23° C. and a humidity of 40 to 60% using a standard cage and under 12 hours cycles of light and darkness. The rats were acclimatized to the room for 1 week while being fed with a standard laboratory feed, and then used in the experiment. All care and experiments of experimental animals were performed following the guidelines by Animal Research Institute of Medical Science at Dongguk University, and the experimental schedule was approved by the Animal Institutional Review Board (AIRB No. 2016-04149 and AIRB No. 2019-07188).
(§2) To construct a post-surgical hypoparathyroidism rat model, 10-week-old rats acclimatized for 1 week were used.
(§3) To identify the parathyroid gland, a photosensitization method using 5-aminolevulinic acid hydrochloride (5-ALA) was performed. Briefly, a 50 mg/mL 5-ALA solution was prepared by suspending a 5-ALA powder (Sigma-Aldrich Korea, 5-aminolevulinic acid, #A3785, purity ≥98%) in a 0.9% NaCl solution. The rats were injected intraperitoneally with 500 mg/kg of the 5-ALA solution and after 2 hours, intramuscularly with Zoletil 50 (Virbac Laboratories, France) (0.1 mL/kg of body weight) and Rompun® (Bayer, Germany) (0.1 mL/kg of body weight). The anesthetized rats were laid down and the anterior neck and chest area were disinfected with povidone-iodine. In the surgical procedure, the trachea and the thyroid glands were exposed by incising the skin longitudinally from the midline of the neck. Both parathyroid glands showing a red fluorescent color were identified using blue light with a wavelength of 405±3 nm (Ergonomic LED Light Sources, Ocean Optics Inc., #LS-405, USA). In the case of the hemi-parathyroidectomy model, only one of both the parathyroid glands was removed. In the case of total parathyroidectomy and auto-transplantation model, both the parathyroid glands were removed, and then cut into small pieces, put into a small pocket made in the right sternocleidomastoid muscle (SCM), and the pocket was sutured with a […].
(§4) AXT914 was obtained by Novartis Pharma AG (Switzerland). The AXT914 was prepared in the form of a microemulsion by the following method. Briefly, after Cremophor RH40 was heated to 65° C. with stirring, the Cremophor RH40, Capmul MCM, triethyl citrate, and ethanol absolute were mixed at a weight ratio of 34.6%, 42%, 8.4%, and 10%, respectively. After a clear solution obtained by stirring the mixture for 1 hour was used as a vehicle and mixed with AXT914 (weight ratio of 5%), the resulting mixture was stirred at an ambient temperature for 8 to 12 hours. A finally obtained microemulsion preconcentrate was diluted 10 folds with deionized water (DW) and mixed vigorously before administration.
Referring to FIG. 1b, rats that had undergone total parathyroidectomy and auto-transplantation were divided into a vehicle administration group (n=8) and an AXT914 administration group (n=8). A sham surgery group (n=6), which had undergone sham surgery, was also prepared. One week after the surgery, the AXT914 prepared in 1-3. was orally administered to the rats once daily for 3 weeks using a zonde needle, and the rats were sacrificed 1 week after the completion of administration and used for analysis. 10 mg/kg of AXT914 was administered to the AXT914 administration group. The vehicle was orally administered to the vehicle administration group and the sham surgery group. Blood was collected from the tails of the rats before the administration of drug (baseline) and from the tails of the rats on Day 21 and Day 28 after the start of drug administration.
Serum samples obtained by centrifugation of BD Microtainer SSTTM (prod. No. REF 365967, Becton Dickinson) containing blood, and were stored in a −80° C. deep freezer. […]

[2] = system: hemi-parathyroidectomy model; experiment: Administration of AXT914 in hemi-parathyroidectomy model (Experimental Schedule 1): serum PTH, calcium, phosphorus, urine calcium/creatinine; details: for urine calcium/creatinine ratio: 24 h urine on Day 13
Method: as §1, §2, §3, §4
Referring to FIG. 1a, rats that had undergone hemi-parathyroidectomy were divided into a vehicle administration group (n=11), an AXT914 administration group 1 (n=10), and an AXT914 administration group 2 (n=11). A sham surgery group (n=9), which had undergone sham surgery, was also prepared. One week after the surgery, the AXT914 prepared in 1-3. was orally administered to the rats once daily for 2 weeks using a zonde needle. 5 mg/kg and 10 mg/kg of the AXT914 were administered to AXT914 administration groups 1 and 2, respectively. The vehicle (a mixture mixed with AXT914 in 1-3.) was orally administered to the vehicle administration group and the sham surgery group. Urine of the rats was collected for 24 hours on Day 13 after the start of drug administration. Blood was collected from the tails of the rats before the administration of drug (baseline) and from the tails of the rats at 0, 30, 120, 240, 360, and 720 minutes on Day 14 after the start of drug administration, and the rats were sacrificed. […]

[3] = system: total parathyroidectomy and auto-transplantation model; experiment: Immunohistochemical staining of transplanted parathyroid tissue in SCM, total parathyroidectomy and auto-transplantation model (Experimental Schedule 3); details: Day 18; for expression of Ki67 (marker of cell proliferation) in transplanted parathyroid tissue: between administration groups
Method: as §1, §2, §3, §4
Referring to FIG. 1c, rats that had undergone total parathyroidectomy and auto-transplantation were divided into a vehicle administration group (n=11), an AXT914 administration group 1 (n=11), and an AXT914 administration group 2 (n=11). A sham surgery group (n=7), which had undergone sham surgery, was also prepared. Six days after the surgery, the AXT914 prepared in 1-3. was orally administered to the rats once daily every 5 days weekly for 18 days using a zonde needle, and the rats were sacrificed on Day 18 of the completion of administration and used for analysis. 10 mg/kg and 20 mg/kg of the AXT914 were orally administered to AXT914 administration groups 1 and 2, respectively. The vehicle was orally administered to the vehicle administration group and the sham surgery group. Blood was collected from the tails of the rats before the administration of drug (baseline) and collected from the tails of the rats on Day 18 of the completion of drug administration. A histological analysis was performed by sacrificing the rats to isolate SCMs with parathyroid glands autotransplanted. […]

[4] = system: total parathyroidectomy and auto-transplantation model; experiment: H&E staining of transplanted parathyroid tissue in SCM, total parathyroidectomy and auto-transplantation model (Experimental Schedule 3); details: Day 18, vs vehicle administration group
Method: as §1, §2
To identify the parathyroid gland, a photosensitization method using 5-aminolevulinic acid hydrochloride (5-ALA) was performed. Briefly, a 50 mg/mL 5-ALA solution was prepared by suspending a 5-ALA powder (Sigma-Aldrich Korea, 5-aminolevulinic acid, #A3785, purity ≥98%) in a 0.9% NaCl solution. The rats were injected intraperitoneally with 500 mg/kg of the 5-ALA solution and after 2 hours, intramuscularly with Zoletil 50 (Virbac Laboratories, France) (0.1 mL/kg of body weight) and Rompun® (Bayer, Germany) (0.1 mL/kg of body weight). […]

[5] = Day 21, vs vehicle administration group
[6] = Day 28 (7 days after drug discontinuation), vs vehicle administration group
[7] = 10 mg/kg oral 5 days weekly for 18 days, vs vehicle administration group
[8] = 20 mg/kg oral 5 days weekly for 18 days, vs vehicle administration group

**Q.** How did the “serum PTH level” value ([1]; Day 21, vs sham surgery group) turn out when `C#CCOc1ccc2c(c1)c(-c1ccc(C(C)C)cc1)nc(=O)n2Cc1ccc(Br)cc1` [AXT914] was run?
**A.** Its value is “lower than those in the sham surgery group”.

**Q.** And the serum calcium level ([1]; Day 21, vs sham surgery group)?
**A.** The serum calcium level was “no difference from those in the sham surgery group”.

**Q.** What about the serum phosphorus level ([1]; Day 21, vs sham surgery group) of the same compound?
**A.** Its serum phosphorus level is “no difference from those in the sham surgery group”.

**Q.** What about the “serum PTH level” value [1, 5] of the same compound?
**A.** The value was “significantly higher than those in the vehicle administration group”.

**Q.** And the serum calcium level [1, 5]?
**A.** Its serum calcium level is “significantly higher than those in the vehicle administration group”.

**Q.** And the serum phosphorus level [1, 5]?
**A.** Its serum phosphorus level is “significantly lower than those in the vehicle administration group”.

**Q.** What about the serum calcium level ([1]; Day 28 (7 days after drug discontinuation), vs sham surgery group) of the same compound?
**A.** The serum calcium level was “lower than those in the sham surgery group”.

**Q.** And the serum calcium level [1, 6]?
**A.** Its serum calcium level is “still higher than those in the vehicle administration group”.

**Q.** And the serum phosphorus level [1, 6]?
**A.** Its serum phosphorus level is “lower than those in the vehicle administration group, but there was no statistical difference”.

**Q.** And the “serum PTH level” value ([2]; 5 mg/kg oral once daily 2 weeks (group 1), Day 14, 120 minutes, vs vehicle administration group)?
**A.** Its value is “higher than that of the vehicle administration group”.

**Q.** And the “serum PTH level” value ([2]; 5 mg/kg oral once daily 2 weeks (group 1), Day 14, vs sham surgery group)?
**A.** Its value is “no statistical difference from the sham surgery group”.

**Q.** And the serum calcium level ([2]; 5 mg/kg oral once daily 2 weeks, Day 14, all times, vs vehicle administration group)?
**A.** The serum calcium level was “significantly higher calcium levels than those of the vehicle administration group”.

**Q.** And the serum phosphorus level ([2]; 5 mg/kg oral once daily 2 weeks, Day 14, vs sham surgery group)?
**A.** Its serum phosphorus level is “no statistical difference from the sham surgery group”.

**Q.** What about the serum calcium level ([2]; 5 mg/kg oral once daily 2 weeks, Day 14 at 0, 30 and 720 minutes, vs sham surgery group) of the same compound?
**A.** Its serum calcium level is “no statistical difference from those of the sham surgery group”.

**Q.** And the serum phosphorus level ([2]; 5 mg/kg oral once daily 2 weeks, Day 14 at 30, 120 and 360 minutes, vs vehicle administration group)?
**A.** Its serum phosphorus level is “significantly lower”.

**Q.** What about the urine calcium/creatinine ratio ([2]; 5 mg/kg oral once daily, vs sham surgery group) of the same compound?
**A.** The urine calcium/creatinine ratio was “no difference between the sham surgery group and the AXT914 administration groups”.

**Q.** What about the urine calcium/creatinine ratio ([2]; 5 mg/kg oral once daily, vs vehicle administration group) of the same compound?
**A.** The urine calcium/creatinine ratio was “vehicle administration group had a significantly higher urine calcium/creatinine ratio than the sham surgery group and the AXT914 administration groups”.

**Q.** What about the “serum PTH level” value ([2]; 10 mg/kg oral once daily 2 weeks (group 2), Day 14, all times, vs the other groups) of the same compound?
**A.** Its value is “significantly higher than those in the other groups”.

**Q.** And the serum calcium level ([2]; 10 mg/kg oral once daily 2 weeks, Day 14, all times, vs vehicle administration group)?
**A.** The serum calcium level was “significantly higher calcium levels than those of the vehicle administration group”.

**Q.** What about the serum phosphorus level ([2]; 10 mg/kg oral once daily 2 weeks, Day 14, vs sham surgery group) of the same compound?
**A.** The serum phosphorus level was “no statistical difference from the sham surgery group”.

**Q.** And the serum calcium level ([2]; 10 mg/kg oral once daily 2 weeks, Day 14 at 0 and 30 minutes, vs sham surgery group)?
**A.** The serum calcium level was “no statistical difference from those of the sham surgery group”.

**Q.** And the serum phosphorus level ([2]; 10 mg/kg oral once daily 2 weeks, Day 14 at 30, 240, 360 and 720 minutes, vs vehicle administration group)?
**A.** The serum phosphorus level was “significantly lower”.

**Q.** What about the urine calcium/creatinine ratio ([2]; 10 mg/kg oral once daily, vs sham surgery group) of the same compound?
**A.** The urine calcium/creatinine ratio was “no difference between the sham surgery group and the AXT914 administration groups”.

**Q.** What about the urine calcium/creatinine ratio ([2]; 10 mg/kg oral once daily, vs vehicle administration group) of the same compound?
**A.** Its urine calcium/creatinine ratio is “vehicle administration group had a significantly higher urine calcium/creatinine ratio than the sham surgery group and the AXT914 administration groups”.

**Q.** What about the “expression of Ki67 (marker of cell proliferation) in transplanted parathyroid tissue” value ([3]; 10 mg/kg oral 5 days weekly for 18 days) of the same compound?
**A.** The value was “not different between the administration groups”.

**Q.** What about the “FGF2 positive cells in transplanted parathyroid tissue” value [3, 7] of the same compound?
**A.** Its value is “not statistically significant, but showed an increasing pattern”.

**Q.** What about the “increase in the expression of VEGFA in transplanted parathyroid tissue” value [3, 7] of the same compound?
**A.** The value was “about 6 fold”.

**Q.** What about the “increase of expression level of PTH in transplanted parathyroid tissue” value [3, 7] of the same compound?
**A.** Its value is “about 2 fold”.

**Q.** And the “increase of number of CD31 positive cells in transplanted parathyroid tissue” value [3, 7]?
**A.** The value was “about 3 folds”.

**Q.** What about the “expression of Ki67 (marker of cell proliferation) in transplanted parathyroid tissue” value ([3]; 20 mg/kg oral 5 days weekly for 18 days) of the same compound?
**A.** Its value is “not different between the administration groups”.

**Q.** What about the “FGF2 positive cells in transplanted parathyroid tissue” value [3, 8] of the same compound?
**A.** The value was “not statistically significant, but showed an increasing pattern”.

**Q.** And the “expression of MCL1 in transplanted parathyroid tissue” value [3, 8]?
**A.** The value was “not statistically significant in AXT914 administration group 2, but showed an increasing pattern”.

**Q.** And the “increase in the expression of VEGFA in transplanted parathyroid tissue” value [3, 8]?
**A.** Its value is “about 10 fold”.

**Q.** What about the “increase of expression level of PTH in transplanted parathyroid tissue” value [3, 8] of the same compound?
**A.** The value was “about 2 fold”.

**Q.** What about the “increase of number of CD31 positive cells in transplanted parathyroid tissue” value [3, 8] of the same compound?
**A.** Its value is “about 4.5 folds”.

**Q.** What about the “area increase of transplanted parathyroid tissue (H&E staining)” value ([4]; 10 mg/kg oral 5 days weekly for 18 days (group 1)) of the same compound?
**A.** Its value is 36%.

**Q.** What about the “area increase of transplanted parathyroid tissue (H&E staining)” value ([4]; 20 mg/kg oral 5 days weekly for 18 days (group 2), significant) of the same compound?
**A.** Its value is “about 3 times”.
